Source: patent US12565468B2, “Processes and intermediates for the preparations of Carboprost and Carboprost Tromethamine, and Carboprost Tromethamine prepared therefrom” (CHIROGATE INTERNATIONAL INC., priority 2021, dated 2026)

What was measured:
Type in all cases: physicochemical
[1] = Stability of Carboprost Tromethamine crystal at 80° C. (HPLC purity and impurities)
Source text: (§1) The high melting point Carboprost Tromethamine Crystal is very stable at room temperature, even at higher temperature, so that the formation of degradation impurities can be effectively avoided.

[2] = Hygroscopicity: water content by Karl Fischer titration after exposure to 99% RH at 25° C.
Procedure: On the other hand, the hygroscopicity of the high melting point Carboprost Tromethamine crystal prepared from Example 10 (Method A) and the low melting point Carboprost Tromethamine crystal prepared from Example 10 (Method B) was measured. The samples were placed in glass vial with 99% RH at 25° C. for 3 hours, and the water content of the samples were measured by Karl Fischer titration, as shown in Table 6.

[3] = Stability of Carboprost Tromethamine crystal on storage at 25° C./60% RH and 5° C. (HPLC purity and impurities)
Source text: as §1

CCCCC[C@](C)(O)/C=C/[C@@H]1[C@@H](C/C=C\CCCC(=O)O)[C@@H](O)C[C@H]1O [Example 10 (Method A), 2-amino-2-(hydroxymethyl)propane-1,3-diol; (Z)-7-((1R,2R,3R,5S)-3,5-dihydroxy-2-((S,E)-3-hydroxy-3-methyloct-1-en-1-yl)cyclopentyl)hept-5-enoate]
15-epi ([1]; 80° C., 1 days): 0.20%
Purity ([1]; 80° C., 1 days): 99.79%
Total Impurities ([1]; 80° C., 1 days): 0.21%
15-epi ([1]; 80° C., 3 days): 0.21%
Purity ([1]; 80° C., 3 days): 99.78%
Total Impurities ([1]; 80° C., 3 days): 0.22%
15-epi ([1]; Control): 0.21%
Purity ([1]; Control): 99.79%
Total Impurities ([1]; Control): 0.21%
Water Content (%) ([2]; 25° C./99% RH/1 h): 1.509%
Water Content (%) ([2]; 25° C./99% RH/2 h): 3.354%
Water Content (%) ([2]; 25° C./99% RH/3 h): 5.881%
Rate of water absorption (in words) ([2]; 99% RH at 25° C. for 3 hours, compared to the low melting point crystal): relatively low rate of water absorption
Water Content (%) ([2]; Original): 0.3657%
15-epi ([3]; 5° C., 1 month): 0.28%
Purity ([3]; 5° C., 1 month): 99.72%
Total Impurities ([3]; 5° C., 1 month): 0.28%
15-epi ([3]; 5° C., 12 months): 0.25%
Purity ([3]; 5° C., 12 months): 99.75%
Total Impurities ([3]; 5° C., 12 months): 0.25%
15-epi ([3]; 5° C., 18 months): 0.25%
Purity ([3]; 5° C., 18 months): 99.75%
Total Impurities ([3]; 5° C., 18 months): 0.25%
15(R)-epimer ([3]; 25° C./60% RH, 1 month): 0.27%
Purity ([3]; 25° C./60% RH, 1 month): 99.71%
Total Impurities ([3]; 25° C./60% RH, 1 month): 0.29%
15(R)-epimer ([3]; 25° C./60% RH, 6 months): 0.25%
Purity ([3]; 25° C./60% RH, 6 months): 99.75%
Total Impurities ([3]; 25° C./60% RH, 6 months): 0.25%
15(R)-epimer ([3]; Control): 0.25%
Purity ([3]; Control): 99.75%
Total Impurities ([3]; Control): 0.25%
Stability (in words) ([3]; at room temperature, even at higher temperature): very stable
Stability (in words) ([3]; treated at 20° C. for 6 months, 5° C. for 18 months, and 80° C. for 3 days): very stable
Stability (in words) ([3]; treated at 20° C. for 6 months, PC for 18 months, and 80° C. for 3 days): stable

CCCCC[C@](C)(O)/C=C/[C@@H]1[C@@H](C/C=C\CCCC(=O)O)[C@@H](O)C[C@H]1O [Example 10 (Method B), 2-amino-2-(hydroxymethyl)propane-1,3-diol; (Z)-7-((1R,2R,3R,5S)-3,5-dihydroxy-2-((S,E)-3-hydroxy-3-methyloct-1-en-1-yl)cyclopentyl)hept-5-enoate, reference compound]
Water Content (%) ([2]; 25° C./99% RH/1 h): 2.236%
Water Content (%) ([2]; 25° C./99% RH/2 h): 5.45%
Water Content (%) ([2]; 25° C./99% RH/3 h): 7.513%
Water Content (%) ([2]; Original): 0.3303%
